“Also recorded” adds a separate entry of the source. Read-outs that look alike come from different tables or passages of the source.
What was measured:
[1] = test system: MCF-7(HER2), SK-BR-3, MDA-MB-231 and MDA-MB-468 breast cancer cells; conditions: different doses, SK-BR-3, MDA-MB-231, MDA-MB-468, triplicates
Experimental: (§1) MCF-7(HER2), SK-BR-3, MDA-MB-231 and MDA-MB-468 breast cancer cells are treated with different doses of 2-Methyl-2-[4-(3-methyl-2-oxo-8-quinolin-3-yl-2, 3-dihydro-imidazo[4,5-c]quinolin-1-yl)-phenyl]-propionitrile, also known as COMPOUND A, metformin or both agents in combination. Levels of phosphorylated and total AMPK, MAPK, EGFR, HER and S6 ribosomal protein are evaluated by western blot. Cell proliferation analyses are performed in triplicates using the WST-1 and crystal violet colorimetric assays.

[2] = test system: A549 non-small cell lung tumors; assay: A549 xenograft 20-day tumor growth inhibition assay; format: in vivo, nude mice
Experimental: A549 human non-small cell lung cancer (NSCLC) cells are treated with different doses of the 2-Methyl-2-[4-(3-methyl-2-oxo-8-quinolin-3-yl-2,3-dihydro-imidazo[4, 5-c]quinolin-1-yl)-phenyl]-propionitrile monotosylate salt (also known as COMPOUND A) or 5-(2,6-di-morpholin-4-yl-pyrimidin-4-yl)-4-trifluoromethyl-pyridin-2-ylamine hydrochloride salt (also known as COMPOUND C), a single dose of metformin or both agents in combination. The A549 human NSCLC cells (ATCC-CCL-185, available from American Type Culture Collection, Rockville, Md. US) display characteristics of type II alveolar epithelial cells (Lieber et al, Int, J, Cancer 17(1): 62-70 [1976]), The A549 NSCLC cells are homozygous for mutations in the tumor suppressor genes, CDKN2A and STK11 (also called LKB1), and in KRAS. (Wellcome Trust Sanger Institute, Catalogue of Somatic Mutations in Cancer, Cosmic ID No, 905949, available at website http://www.sanger.ac.uk/peri/genetics/CGP/core_line_viewer?action=sample&name=A549.)
A549 tumor cells are grown in Kaighn's modified Ham's F12 medium containing 100 units/mL penicillin G sodium, 100 μg/mL streptomycin sulfate, 25 μg/mL gentamicin, […], 2 mM glutamine, and 1 mM sodium pyruvate. The cells are cultured in tissue culture flasks in a humidified incubator at 37° C., in an atmosphere of 5% CO2 and 95% air. The cells are harvested for injection into 9-week old female nu/nu (nude) mice (Harlan Laboratories, Indianapolis, Ind.) by detaching the monolayers with 2X trypsin and resuspending at 5×10^7cells/mL in cold phosphate-buffered saline containing 50% Matrigel.
(§2) 0.2 mL of A549 cell suspension (1×10^7 cells) is injected subcutaneously in the right flank of 9-week old female flu/flu (nude) mice (Harlan Laboratories, Indianapolis, Ind.) having a body weight (BW) range of 19.9-27.3 g on Day 1 of the study, Tumors are callipered in two dimensions to monitor their growth as their mean volume approached 150-220 mm^3, Twenty-two days after implantation, the mice are sorted into 11 groups of eight or nine mice having individual tumor sizes of 108-221 mm^3. Tumor volume in mm^3 is determined using the formula [(width)^2×(length)][…], where width width of the tumor in mm and length=length of the tumor in mm. Tumor weight can be estimated with the assumption that 1 mg is equivalent to 1 mm^3 of tumor volume.
(§3) The 11 groups of nude mice are treated as follows. One group of nine mice serves as Controls (C or Control) for all analyses and is administered intraperitoneally (i,p,) 50 mM sodium acetate at pH 4 (Vehicle 1) and then administered by oral gavage (p.o.) a composition comprising 10% N-methylpyrrolidone: 90% polyethylene glycol 300 (PEG300) (Vehicle 2). […] Metformin is dissolved in 50 mM sodium acetate at pH 4 for dosing,
(§4) Compound A and Compound C are stored at −20° C. protected from light. Stock solutions (10X) in 100% N-methylpyrrolidone (NMP) are prepared every five days, aliquotted, and stored in the dark at room temperature. On each treatment day, stock solution aliquots are diluted with polyethylene glycol (PEG300) to provide the formulated drug (Compound A or Compound C) in 10% NMP: 90% PEG300. Dosing solutions are protected from light, and the formulated drug is administered within 1 hour after preparation.
(§5) For combination therapies, Compound A or Compound C are administered by oral gavage (p.o.) within 30 minutes after the intraperitoneal (i.p.) administration of metformin , except on Day 20 when Compound A or Compound C is given immediately after metformin.
(§6) Paclitaxel (Natural Pharmaceuticals, Inc., Beverly, Mass., USA) is administered by bolus tail-vein injections (i v) once daily on alternate days for five doses. Paclitaxel is dissolved in 50% ethanol and 50% Cremophor® EL to prepare a 10X stock solution stored at room temperature. On each day of dosing, an aliquot of the paclitaxel stock solution is diluted with 5% dextrose in water to yield a dosing solution containing 5% ethanol and 5% Cremophor®EL.

[3] = Experimental: as §2, §3, §4, §5, §6
In all groups, the dosing volume of 10 mL/kg (0.2 mL/ 20 g mouse) is scaled to the weight of each animal as determined on the day of dosing, except on weekends when the previous BW is carried forward.

[4] = test system: phosphorylated and total AMPK, MAPK, EGFR, HER and S6 ribosomal protein; assay: Western blot of phosphorylated and total signalling proteins in breast cancer cells; format: cell-based
Experimental: as §1

[5] = Metformin 192.3 mg/kg i.p., 1x daily, Day 20
[6] = breast cancer cells, listed as metformin
[7] = Compound A 41.1 mg/kg p.o., 1x daily, Day 20
[8] = Compound A 68.5 mg/kg p.o., 1x daily, Day 20
[9] = Paclitaxel 30 mg/kg i.v., 1x on alternate days for 5 doses, Day 20
[10] = Compound C 32.7 mg/kg p.o., 1x daily, Day 20
[11] = Compound C 54.4 mg/kg p.o., 1x daily, Day 20

CN(C)C(=N)N=C(N)N [Metformin, dimethyldiguanide, reference compound]
cell proliferation / growth inhibition [1]: dose-dependent growth inhibition
cell proliferation / growth inhibition ([1]; listed as metformin): inhbitor of HER2 negative breast cancer cell proliferation
Mean Tumor Vol. Change [2, 5]: 221 mm^3
Regression [2, 5]: None
activity in the 20-day tumor growth inhibition assay ([2]; metformin monotherapy at 192.3 mg/kg): did not appear active
T/C ([2]; mouse, in vivo): 69% (ns)
Dead/Total ([3]; female, nu/nu (nude), mouse, in vivo): 1/9
AMPK activation (p-AMPK) ([4]; breast cancer cells): activates AMPK
levels of p-S6 ribosomal protein ([4]; breast cancer cells): decreasing the levels of p-S6 ribosomal protein
receptor tyrosine kinase (EGFR and HER2) expression ([4]; breast cancer cells): reduced receptor tyrosine kinase (EGFR and HER2) expression
AMPK activation (p-AMPK) [4, 6]: activates p-AMPK
p-MAPK / MAPK phosphorylation [4, 6]: reduces p-MAPK; also recorded: decreased p-MAPK
MARK pathway transactivation induced by COMPOUND A ([4]; metformin together with COMPOUND A): counteracts

Cn1c(=O)n(-c2ccc(C(C)(C)C#N)cc2)c2c3cc(-c4cnc5ccccc5c4)ccc3ncc21 [Compound A, 2-Methyl-2-[4-(3-methyl-2-oxo-8-quinolin-3-yl-2,3-dihydro-imidazo[4,5-c]quinolin-1-yl)-phenyl]-propionitrile]
Mean Tumor Vol. Change [2, 7]: 58 mm^3
Regression [2, 7]: None
T/C [2, 7]: 18% (ns)
Mean Tumor Vol. Change [2, 8]: −51 mm^3
Regression [2, 8]: 3 Partial
T/T0 [2, 8]: −31% (T/T0,
Dead/Total ([3]; female, nu/nu (nude), mouse, in vivo, po, 41.1 mg/kg): 0/8
Dead/Total ([3]; female, nu/nu (nude), mouse, in vivo, po, 68.5 mg/kg): 0/9
Mean Body Weight Change ([3]; mouse, in vivo, po, 68.5 mg/kg): −0.8%, Day 4
levels of p-S6 ribosomal protein ([4]; breast cancer cells): potently decreases
p-AKT ([4]; breast cancer cells): potently decreases
p-MAPK / MAPK phosphorylation ([4]; breast cancer cells): increases MAPK phosphorylation

CC(=O)O[C@H]1C(=O)[C@@]2(C)[C@H]([C@H](OC(=O)c3ccccc3)[C@]3(O)C[C@H](OC(=O)[C@H](O)[C@@H](NC(=O)c4ccccc4)c4ccccc4)C(C)=C1C3(C)C)[C@]1(OC(C)=O)CO[C@@H]1C[C@@H]2O [Paclitaxel, reference compound]
Mean Tumor Vol. Change [2, 9]: 9 mm^3
Regression [2, 9]: None
T/C [2, 9]: 3%
Dead/Total ([3]; Paclitaxel 30 mg/kg i.v., 1x on alternate days for 5 doses): 0/8

Nc1cc(C(F)(F)F)c(-c2cc(N3CCOCC3)nc(N3CCOCC3)n2)cn1 [Compound C, 5-(2,6-di-morpholin-4-yl-pyrimidin-4-yl)-4-trifluoromethyl-pyridin-2-ylamine]
Mean Tumor Vol. Change [2, 10]: 63 mm^3
Regression [2, 10]: None
T/C [2, 10]: 20% (ns)
Mean Tumor Vol. Change [2, 11]: −80 mm^3
Regression [2, 11]: None
T/T0 [2, 11]: −48% (T/T0,

From patent publication US20120059005A1, “COMBINATION OF (A) A PHOSPHOINOSITIDE 3-KINASE INHIBITOR AND (B) AN ANTIDIABETIC COMPOUND FOR USE IN THE TREATMENT OF PROLIFERATIVE DISEASES” (NOVARTIS AG, priority 2009, published 2012)
